Assay results taken from patent US10441663B2, “Methods for treating cancer” (Bicycle Therapeutics Limited, priority 2016, dated 2019).
*1 amine or outer side, *2 acyl side, *3 side chain or, on linkers, in order; H or OH if unused. Where a SMILES comes first, the peptide text is derived from it. Bridges are numbered along the chain shown (N, C = ends). [ ]: non-standard residue; d: D form. The star is where a group is joined. X1 = COc1cc2cc(c1Cl)N(C)C(=O)C[C@H](OC(=O)[C@H](C)N(C)C(=O)CCSSC(C)CCC(=O)*)[C@]1(C)O[C@H]1[C@H](C)[C@@H]1C[C@@](O)(NC(=O)O1)[C@H](OC)/C=C/C=C(\C)C2; 1Nal = N[C@@H](Cc1cccc2ccccc12)C(=O)O; TBMB = c1c(C[*:1])cc(C[*:3])cc1C[*:2]; Tle = CC(C)(C)[C@H](N)C(=O)O; βAla = NCCC(=O)O; Sar = CNCC(=O)O

Key:
SNU-16 xenograft = experiment: In vivo efficacy of BT1718 in SNU-16 xenograft; design: species or system Mus Musculus; key to Best response at 10 mg/kg: CR complete response; PR partial response
Description: (§1) The objective of this study was to evaluate the in vivo anti-tumor efficacy of BT1718in treatment of HT1080, NCI-H292, NCI-H1975, MDA-MB-231, HCC1806, RPMI2650, HCT-15, HT-29 and SNU-16 xenograft in BALB/c nude mice.
(§2) The HT1080, NCI-H292, NCI-H1975, MDA-MB-231, HCC1806, RPMI2650, HCT-15, HT-29 and SNU-16 tumor cells were maintained in vitro as a monolayer culture in medium supplemented with 10% heat inactivated fetal bovine serum at 37° C. in an […]. The tumor cells will be routinely subcultured twice weekly by trypsin-EDTA treatment. The cells growing in an exponential growth phase will be harvested and counted for tumor inoculation.
(§3) Mouse was inoculated subcutaneously at the right flank with tumor cells for tumor development. The animals were randomized and treatment was started when the average tumor reaches certain volume for the efficacy study, the inoculating cell amounts and starting tumor size were shown as below in Table 9. The test article administration and the animal numbers in each group were shown in the experimental design in Table 10.
(§4) All the procedures related to animal handling, care and the treatment in the study were performed according to the guidelines of the Association for Assessment and Accreditation of Laboratory Animal Care (AAALAC). At the time of routine monitoring, the animals were daily checked for any effects of tumor growth and treatments on normal behavior such as mobility, food and water consumption (by looking only), body weight gain/loss (body weights were measured every day), eye/hair matting and any other abnormal effect as stated in the protocol. Death and observed clinical signs were recorded on the basis of the numbers of animals within each subset.
(§5) The major endpoint was to see if the tumor growth could be delayed or mice could be cured. Tumor size was measured three times weekly in two dimensions using a caliper, and the volume was expressed in mm^3 using the formula: V=0.5 a×b^2 where a and b are the long and short diameters of the tumor, respectively. The tumor size was then used for calculations of T/C value. The T/C value (in percent) is an indication of antitumor effectiveness; T and C are the mean volumes of the treated and control groups, respectively, on a given day.
(§6) TGI was calculated for each group using the formula: TGI (%)=[1−(Ti−T0)/(Vi−V0)]×100; Ti is the average tumor volume of a treatment group on a given day, T0 is the average tumor volume of the treatment group on the day of treatment start, Vi is the average tumor volume of the vehicle control group on the same day with Ti, and V0 is the average tumor volume of the vehicle group on the day of treatment start.
(§7) Summary statistics, including mean and the standard error of the mean (SEM), are provided for the tumor volume of each group at each time point.
(§8) Statistical analysis of difference in tumor volume among the groups was conducted on the data obtained at the best therapeutic time point after the final dose.
(§9) A one-way ANOVA was performed to compare tumor volume among groups, and when a significant F-statistics (a ratio of treatment variance to the error variance) was obtained, comparisons between groups were carried out with Games-Howell test. All data were analyzed using Prism. P<0.05 was considered to be statistically significant.

RPMI2650 xenograft = experiment: In vivo efficacy of BT1718 in RPMI2650 xenograft; design: species or system Mus Musculus; key to Best response at 10 mg/kg: CR complete response; PR partial response
Description: as §1, §2, §3, §4, §5, §6, §7, §8, §9

For `COc1cc2cc(c1Cl)N(C)C(=O)C[C@H](OC(=O)[C@H](C)N(C)C(=O)CCSSC(C)CCC(=O)NCCC(=O)N(C)CC(=O)N(C)CC(=O)N(C)CC(=O)N(C)CC(=O)N(C)CC(=O)N(C)CC(=O)N(C)CC(=O)N(C)CC(=O)N(C)CC(=O)N(C)CC(=O)N[C@@H](C)C(=O)N[C@H]1CSCc3cc4cc(c3)CSC[C@H](NC(=O)[C@@H](C)NC(=O)[C@H](Cc3cccc5ccccc35)NC(=O)[C@H](CCC(=O)O)NC(=O)[C@H](CC(N)=O)NC(=O)[C@@H](C)NC1=O)C(=O)N[C@@H](CCC(=O)O)C(=O)N[C@@H](CC(=O)O)C(=O)N[C@@H](Cc1ccccc1)C(=O)N[C@@H](Cc1ccc(O)cc1)C(=O)N[C@@H](CC(=O)O)C(=O)N[C@@H](C(C)(C)C)C(=O)N[C@H](C(N)=O)CSC4)[C@]1(C)O[C@H]1[C@H](C)[C@@H]1C[C@@](O)(NC(=O)O1)[C@H](OC)/C=C/C=C(\C)C2` (stereo partly drawn) [BT1718] ({X1-βAla}-[Sar][Sar][Sar][Sar][Sar][Sar][Sar][Sar][Sar][Sar]AC[dA]NE[1Nal][dA]CEDFYD[Tle]C-NH2; linker 12-18-25 via TBMB (inferred)), the “Body Weight” value (SNU-16 xenograft; 1 mpk biw, day 0) was 22.9 ± 0.5 g, the “Tumor Volume” value (SNU-16 xenograft; 1 mpk biw, day 0) was 160 ± 24 mm^3 and the “Body Weight” value (SNU-16 xenograft; 1 mpk biw, day 2) was 22.8 ± 0.5 g. The “Tumor Volume” value (SNU-16 xenograft; 1 mpk biw, day 2) was 160 ± 15 mm^3, the “Body Weight” value (SNU-16 xenograft; 1 mpk biw, day 4) was 23.0 ± 0.5 g and the “Tumor Volume” value (SNU-16 xenograft; 1 mpk biw, day 4) was 140 ± 12 mm^3. For the same compound, the “Body Weight” value (SNU-16 xenograft; 1 mpk biw, day 7) was 23.0 ± 0.4 g, the “Tumor Volume” value (SNU-16 xenograft; 1 mpk biw, day 7) was 137 ± 13 mm^3 and the “Body Weight” value (SNU-16 xenograft; 1 mpk biw, day 9) was 22.7 ± 0.5 g. The “Tumor Volume” value (SNU-16 xenograft; 1 mpk biw, day 9) was 139 ± 9 mm^3, the “Body Weight” value (SNU-16 xenograft; 1 mpk biw, day 11) was 23.0 ± 0.5 g and the “Tumor Volume” value (SNU-16 xenograft; 1 mpk biw, day 11) was 142 ± 11 mm^3. For the same compound, the “Body Weight” value (SNU-16 xenograft; 1 mpk biw, day 14) was 23.3 ± 0.5 g, the “Tumor Volume” value (SNU-16 xenograft; 1 mpk biw, day 14) was 176 ± 9 mm^3 and the “Body Weight” value (SNU-16 xenograft; 3 mpk biw, day 0) was 22.7 ± 0.3 g. The “Tumor Volume” value (SNU-16 xenograft; 3 mpk biw, day 0) was 161 ± 29 mm^3, the “Body Weight” value (SNU-16 xenograft; 3 mpk biw, day 2) was 22.1 ± 0.5 g and the “Tumor Volume” value (SNU-16 xenograft; 3 mpk biw, day 2) was 115 ± 13 mm^3. The “Body Weight” value (SNU-16 xenograft; 3 mpk biw, day 4) was 21.8 ± 0.2 g, the “Tumor Volume” value (SNU-16 xenograft; 3 mpk biw, day 4) was 36 ± 4 mm^3 and the “Body Weight” value (SNU-16 xenograft; 3 mpk biw, day 7) was 21.5 ± 0.3 g. The “Tumor Volume” value (SNU-16 xenograft; 3 mpk biw, day 7) was 25 ± 4 mm^3, the “Body Weight” value (SNU-16 xenograft; 3 mpk biw, day 9) was 20.0 ± 0.1 g and the “Tumor Volume” value (SNU-16 xenograft; 3 mpk biw, day 9) was 18 ± 1 mm^3. For the same compound, the “Body Weight” value (SNU-16 xenograft; 3 mpk biw, day 11) was 20.2 ± 0.6 g, the “Tumor Volume” value (SNU-16 xenograft; 3 mpk biw, day 11) was 5 ± 3 mm^3 and the “Body Weight” value (SNU-16 xenograft; 3 mpk biw, day 14) was 20.6 ± 0.6 g. For the same compound, the “Tumor Volume” value (SNU-16 xenograft; 3 mpk biw, day 14) was 0 ± 0 mm^3, the “Best response at 10 mg/kg” value (SNU-16 xenograft; SNU-16, 10 mg/kg) was “CR” and the TGI (SNU-16 xenograft; SNU-16, 1 mpk, biw, day 14) was 51.4%. The “Tumor Volume” value (SNU-16 xenograft; SNU-16, 1 mpk, biw, day 14) was 304 ± 43 mm^3, the TGI (SNU-16 xenograft; SNU-16, 3 mpk, biw, day 14) was 94.5% and the “Tumor Volume” value (SNU-16 xenograft; SNU-16, 3 mpk, biw, day 14) was 176 ± 9 mm^3. The TGI (SNU-16 xenograft; SNU-16, 10 mpk, biw, day 14) was 155%, the “Tumor Volume” value (SNU-16 xenograft; SNU-16, 10 mpk, biw, day 14) was 0 ± 0 mm^3 and the “Minimally Effective Dose IV BIW” value (SNU-16 xenograft; SNU-16, dose leading to tumor-stasis) was 3 mg/kg. For the same compound, the “dosing suspension until re-growth to 150 mm3” value (SNU-16 xenograft; after 10 mg/kg biw) was 7 weeks, the tumor response (SNU-16 xenograft; after 2 weeks 10 mg/kg biw) was “completely regressed” and the “dosing time until tumor regression on resumed treatment” value (SNU-16 xenograft; mouse, in vivo) was 1-2 weeks. For the same compound, the tumor response (RPMI2650 xenograft; 10 mg/kg biw) was “significant tumor inhibition effect, but didn't cause tumor regression”, the “Body Weight” value (RPMI2650 xenograft; 1 mpk biw, day 0) was 21.8 ± 0.5 g and the “Tumor Volume” value (RPMI2650 xenograft; 1 mpk biw, day 0) was 146 ± 5 mm^3. For the same compound, the “Body Weight” value (RPMI2650 xenograft; 1 mpk biw, day 2) was 22.1 ± 0.6 g, the “Tumor Volume” value (RPMI2650 xenograft; 1 mpk biw, day 2) was 159 ± 9 mm^3 and the “Body Weight” value (RPMI2650 xenograft; 1 mpk biw, day 4) was 22.1 ± 0.7 g. The “Tumor Volume” value (RPMI2650 xenograft; 1 mpk biw, day 4) was 213 ± 23 mm^3, the “Body Weight” value (RPMI2650 xenograft; 1 mpk biw, day 7) was 22.6 ± 0.5 g and the “Tumor Volume” value (RPMI2650 xenograft; 1 mpk biw, day 7) was 362 ± 34 mm^3. The “Body Weight” value (RPMI2650 xenograft; 1 mpk biw, day 9) was 22.8 ± 0.5 g, the “Tumor Volume” value (RPMI2650 xenograft; 1 mpk biw, day 9) was 470 ± 68 mm^3 and the “Body Weight” value (RPMI2650 xenograft; 1 mpk biw, day 11) was 22.6 ± 0.6 g. The “Tumor Volume” value (RPMI2650 xenograft; 1 mpk biw, day 11) was 614 ± 96 mm^3, the “Body Weight” value (RPMI2650 xenograft; 1 mpk biw, day 14) was 23.1 ± 0.8 g and the “Tumor Volume” value (RPMI2650 xenograft; 1 mpk biw, day 14) was 833 ± 126 mm^3. For the same compound, the “Body Weight” value (RPMI2650 xenograft; 3 mpk biw, day 0) was 22.1 ± 0.7 g, the “Tumor Volume” value (RPMI2650 xenograft; 3 mpk biw, day 0) was 147 ± 11 mm^3 and the “Body Weight” value (RPMI2650 xenograft; 3 mpk biw, day 2) was 21.9 ± 0.8 g. For the same compound, the “Tumor Volume” value (RPMI2650 xenograft; 3 mpk biw, day 2) was 164 ± 20 mm^3, the “Body Weight” value (RPMI2650 xenograft; 3 mpk biw, day 4) was 21.4 ± 0.6 g and the “Tumor Volume” value (RPMI2650 xenograft; 3 mpk biw, day 4) was 220 ± 23 mm^3. For the same compound, the “Body Weight” value (RPMI2650 xenograft; 3 mpk biw, day 7) was 21.9 ± 0.8 g, the “Tumor Volume” value (RPMI2650 xenograft; 3 mpk biw, day 7) was 365 ± 10 mm^3 and the “Body Weight” value (RPMI2650 xenograft; 3 mpk biw, day 9) was 21.4 ± 0.7 g. The “Tumor Volume” value (RPMI2650 xenograft; 3 mpk biw, day 9) was 447 ± 18 mm^3, the “Body Weight” value (RPMI2650 xenograft; 3 mpk biw, day 11) was 20.7 ± 0.8 g and the “Tumor Volume” value (RPMI2650 xenograft; 3 mpk biw, day 11) was 576 ± 19 mm^3. The “Body Weight” value (RPMI2650 xenograft; 3 mpk biw, day 14) was 21.0 ± 0.7 g, the “Tumor Volume” value (RPMI2650 xenograft; 3 mpk biw, day 14) was 724 ± 28 mm^3 and the “Body Weight” value (RPMI2650 xenograft; 10 mpk biw, day 0) was 22.0 ± 0.3 g. The “Tumor Volume” value (RPMI2650 xenograft; 10 mpk biw, day 0) was 147 ± 7 mm^3, the “Body Weight” value (RPMI2650 xenograft; 10 mpk biw, day 2) was 21.2 ± 0.1 g and the “Tumor Volume” value (RPMI2650 xenograft; 10 mpk biw, day 2) was 151 ± 10 mm^3. For the same compound, the “Body Weight” value (RPMI2650 xenograft; 10 mpk biw, day 4) was 20.6 ± 0.5 g, the “Tumor Volume” value (RPMI2650 xenograft; 10 mpk biw, day 4) was 190 ± 25 mm^3 and the “Body Weight” value (RPMI2650 xenograft; 10 mpk biw, day 7) was 21.1 ± 0.4 g. For the same compound, the “Tumor Volume” value (RPMI2650 xenograft; 10 mpk biw, day 7) was 198 ± 38 mm^3, the “Body Weight” value (RPMI2650 xenograft; 10 mpk biw, day 9) was 19.9 ± 0.3 g and the “Tumor Volume” value (RPMI2650 xenograft; 10 mpk biw, day 9) was 165 ± 42 mm^3. For the same compound, the “Body Weight” value (RPMI2650 xenograft; 10 mpk biw, day 11) was 19.2 ± 0.3 g, the “Tumor Volume” value (RPMI2650 xenograft; 10 mpk biw, day 11) was 155 ± 54 mm^3 and the “Body Weight” value (RPMI2650 xenograft; 10 mpk biw, day 14) was 19.6 ± 0.7 g. The “Tumor Volume” value (RPMI2650 xenograft; 10 mpk biw, day 14) was 131 ± 49 mm^3, the “Best response at 10 mg/kg” value (RPMI2650 xenograft; RPMI2650, 10 mg/kg) was “PR” and the TGI (RPMI2650 xenograft; RPMI2650, 1 mpk, biw, day 14) was 4.5%. The “Tumor Volume” value (RPMI2650 xenograft; RPMI2650, 1 mpk, biw, day 14) was 833 ± 126 mm^3, the TGI (RPMI2650 xenograft; RPMI2650, 3 mpk, biw, day 14) was 19.8% and the “Tumor Volume” value (RPMI2650 xenograft; RPMI2650, 3 mpk, biw, day 14) was 724 ± 28 mm^3. For the same compound, the TGI (RPMI2650 xenograft; RPMI2650, 10 mpk, biw, day 14) was 102.1%, the “Tumor Volume” value (RPMI2650 xenograft; RPMI2650, 10 mpk, biw, day 14) was 131 ± 49 mm^3 and the “Minimally Effective Dose IV BIW” value (RPMI2650 xenograft; RPMI2650, dose leading to tumor-stasis) was 10 mg/kg.
